Source: US10294202B2, “Pyrrolidinones as herbicides” (FMC Corporation, priority 2013, dated 2019)

Legend:
velvetleaf = assay: Test A pre-/postemergence herbicide test; assay type: in vivo, Abutilon theophrasti
Summary of the method: (§1)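 Directed soil spray to seeded pots (preemergence) or spray onto one- to two-leaf seedlings 2–10 cm tall (postemergence); loam/sand substrate throughout. Evaluated visually after about 10 days against untreated plants, 0 = no effect, 100 = complete control.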

rice = assay: Test C flooded paddy test; assay type: in vivo, Oryza sativa; conditions: Flood
Summary of the method: (§2)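 Visual ratings from 0, no effect, to 100, complete control, were made against untreated controls after 13–15 greenhouse days. Compounds had gone straight into paddy water 3 cm above the soil, kept at that depth, on 2-leaf-stage plants.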

sedge, umbrella = assay: Test C flooded paddy test; assay type: in vivo, Cyperus difformis; conditions: Flood
Summary of the method: as §2

ducksalad = assay: Test C flooded paddy test; assay type: in vivo, Heteranthera limosa; conditions: Flood
Summary of the method: as §2

barnyardgrass = assay: Test C flooded paddy test; assay type: in vivo, Echinochloa crus-galli; conditions: Flood
Summary of the method: as §2

kochia = assay: Test A pre-/postemergence herbicide test; assay type: in vivo, Kochia scoparia
Summary of the method: as §1

ragweed = assay: Test A pre-/postemergence herbicide test; assay type: in vivo, Ambrosia elatior
Summary of the method: as §1

ryegrass, Italian = assay: Test A pre-/postemergence herbicide test; assay type: in vivo, Lolium multiflorum
Summary of the method: as §1

blackgrass = assay: Test A postemergence herbicide test; assay type: in vivo, Alopecurus myosuroides
Summary of the method: (§3)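 Young potted plants in a loam–sand mix, one- to two-leaf stage and 2–10 cm tall, receive the test chemical postemergence and stay in a greenhouse for approximately 10 days. Injury is then judged by eye against untreated plants, scored 0 (none) to 100 (complete control).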

galium = assay: Test A postemergence herbicide test; assay type: in vivo, Galium aparine
Summary of the method: as §3

[1] = Postemergence, 500 g ai/ha, 0 to 100 scale (0 no effect, 100 complete control)
[2] = Preemergence, 125 g ai/ha, 0 to 100 scale where 0 is no effect and 100 is complete control
[3] = preemergence, 500 g ai/ha, 0 to 100 scale, 0 is no effect and 100 is complete control
[4] = 250 g ai/ha, scale of 0 to 100 where 0 is no effect and 100 is complete control, 13 to 15 days
[5] = 31 g ai/ha, scale of 0 to 100 where 0 is no effect and 100 is complete control, 13 to 15 days
[6] = 62 g ai/ha, scale of 0 to 100 where 0 is no effect and 100 is complete control, 13 to 15 days
[7] = 125 g ai/ha, scale of 0 to 100 where 0 is no effect and 100 is complete control, 13 to 15 days
[8] = Postemergence, 125 g ai/ha, visual rating on 0 to 100 scale (0 no effect, 100 complete control), approx. 10 days
[9] = Preemergence, 500 g ai/ha, visual rating on 0 to 100 scale (0 no effect, 100 complete control)
[10] = 125 g ai/ha, visual rating on 0 to 100 scale (0 no effect, 100 complete control), approx. 10 days
[11] = 500 g ai/ha, 0 to 100 scale (0 no effect, 100 complete control)

Row | Structure (SMILES) | Plant response rating, Velvetleaf (velvetleaf; [2]) | Plant response rating, Velvetleaf (velvetleaf; [3]) | Plant response rating, Rice (rice; [4]) | Plant response rating, Sedge, Umbrella (sedge, umbrella; [4]) | Plant response rating, Ducksalad (ducksalad; [4]) | Plant response rating, Barnyardgrass (barnyardgrass; [4]) | Plant response rating, Rice (rice; [5]) | Plant response rating, Rice (rice; [6]) | Plant response rating, Rice (rice; [7]) | Plant response rating, Sedge, Umbrella (sedge, umbrella; [5]) | Plant response rating, Sedge, Umbrella (sedge, umbrella; [6]) | Plant response rating, Sedge, Umbrella (sedge, umbrella; [7]) | Plant response rating, Ducksalad (ducksalad; [5]) | Plant response rating, Ducksalad (ducksalad; [6]) | Plant response rating, Ducksalad (ducksalad; [7]) | Plant response rating, Barnyardgrass (barnyardgrass; [5]) | Plant response rating, Barnyardgrass (barnyardgrass; [6]) | Plant response rating, Barnyardgrass (barnyardgrass; [7]) | also measured
1 | O=C1NCC(c2ccc(C(F)(F)F)c(F)c2)C1C(=O)Nc1cccc(F)c1F (racemic) [Compound 247] | 0 | 0 | 0 | 0 | 75 | 25 | – | – | – | – | – | – | – | – | – | – | – | – | Plant response rating, Velvetleaf (velvetleaf; Postemergence, 125 g ai/ha, 0 to 100 scale, 0 is no effect, 100 is complete control): 0; Plant response rating, Velvetleaf (velvetleaf; [1]): 0; Plant response rating, Rice (rice; 500 g ai/ha, scale 0 to 100): 0; Plant response rating, Rice (rice; 1000 g ai/ha, scale 0 to 100): 0; Plant response rating, Rice (rice; 2000 g ai/ha, scale 0 to 100): 15; Plant response rating, Sedge, Umbrella (sedge, umbrella; 500 g ai/ha, scale 0 to 100): 0; Plant response rating, Sedge, Umbrella (sedge, umbrella; 1000 g ai/ha, scale 0 to 100): 0; Plant response rating, Sedge, Umbrella (sedge, umbrella; 2000 g ai/ha, scale 0 to 100): 0; Plant response rating, Ducksalad (ducksalad; 500 g ai/ha, scale 0 to 100): 85; Plant response rating, Ducksalad (ducksalad; 1000 g ai/ha, scale 0 to 100): 100; Plant response rating, Ducksalad (ducksalad; 2000 g ai/ha, scale 0 to 100): 100; Plant response rating, Barnyardgrass (barnyardgrass; 500 g ai/ha, scale 0 to 100): 35; Plant response rating, Barnyardgrass (barnyardgrass; 1000 g ai/ha, scale 0 to 100): 70; Plant response rating, Barnyardgrass (barnyardgrass; 2000 g ai/ha, scale 0 to 100): 80
2 | O=C1NCC(c2ccc(C(F)(F)F)nc2)C1C(=O)Nc1cccc(F)c1F (racemic) [Compound 263] | 50 | 50 | 15 | 0 | 100 | 80 | 0 | 0 | 0 | 0 | 0 | 0 | 70 | 90 | 100 | 20 | 35 | 45 | –
3 | O=C1NCC(c2cccc(C(F)(F)F)c2)C1C(=O)Nc1ccccc1Cl (stereo not shown) [Compound 312] | – | – | 0 | 0 | 95 | 60 | 0 | 0 | 0 | 0 | 0 | 0 | 50 | 60 | 65 | 0 | 0 | 30 | Plant response rating, Kochia (kochia; [8]): 20; Plant response rating, Kochia (kochia; [1]): 40; Plant response rating, Kochia (kochia; [2]): 20; Kochia plant response rating (kochia; [9]): 70; Plant response rating, Ragweed (ragweed; [8]): 20; Plant response rating, Ragweed (ragweed; [1]): 40; Plant response rating, Ragweed (ragweed; [2]): 0; Ragweed plant response rating (ragweed; [9]): 30; Plant response rating, Ryegrass, Italian (ryegrass, Italian; [8]): 20; Plant response rating, Ryegrass, Italian (ryegrass, Italian; [1]): 40; Plant response rating, Ryegrass, Italian (ryegrass, Italian; [2]): 20; Ryegrass, Italian plant response rating (ryegrass, Italian; [9]): 60; Plant response rating, Blackgrass (blackgrass; [10]): 40; Plant response rating, Blackgrass (blackgrass; [11]): 50; Plant response rating, Galium (galium; [10]): 30; Plant response rating, Galium (galium; [11]): 50
